Measurements as given in patent publication US11046701B2, “Salt of cetagliptin, preparation method thereof, pharmaceutical composition, and use thereof” (CGENETECH (SUZHOU, CHINA) CO., LTD., priority 2018, dated 2021).
≈ marks a conversion by molar mass, not a printed value. Where “and” joins values, the source holds several entries; their conditions need not be identical. Identical values can stand only once.

Experiments:
[1] = Rough solubility of the amorphous phosphate in solvents; format: physicochemical; details: thermodynamic from solid
Experimental: The rough solubility of the amorphous phosphate prepared in Example 1 was measured. During the test, about 2 mg of the amorphous phosphate prepared in Example 1 was weighed and put into a 3 mL glass bottle, the solvents listed in the following Table 8 were added separately at an amount of 20 microliters/each time, and it was observed whether the sample was completely dissolved. If the sample was still not dissolved completely after 2.0 mL of the solvents was added, the test ended.

[2] = PK/PD experiment of ICR mice: plasma concentration; format: in vivo, CD-1 (ICR) mice; details: CD-1 (ICR), mouse, oral dose 3 mg/kg
Experimental: (§1) Experimental animals: CD-1 (ICR) mice aged for 4 weeks and weighed for about 18-22 g.
(§2) Grouping and administration scheme: the mice were fed adaptively, randomly grouped according to the weight on the day before experiment, and fasted overnight. […] After the experimental grouping, the group provided separately for detecting the initial basic value of DPPIV was carried out blood sampling, and other animals were intragastrically administrated with the drug at an administration volume of 10 mL/kg, the blood was sampled after the administration, and all other animals were stimulated with glucose administration; the blood was sampled at 20 min, 40 min, 60 min and 120 min after the glucose administration, respectively, and the plasma concentration and the DPPIV activity were detected by using plasma.
Research on pharmacodynamics-plasma concentration correlation: blood samples were collected at time points of 1 h, 1.33 h, 1.67 h, 2 h and 3 h after administration, and the plasma concentration was measured. The drug exposure value (AUCeff0-3h) of the DPPIV-P1 increased with the increase of dose, which was 16.09 ng·h/mL, 52.65 ng·h/mL, 162.3 ng·h/mL and 542.28 ng·h/mL, respectively.

[3] = Weight of ICR mice of each group; format: in vivo, CD-1 (ICR) mice; details: individual animals, 3 mg/kg group, 3 mg/kg
Experimental: as §1, §2

DIO mice [4] = test: Long-term administration on DIO mice: fasting blood glucose; format: in vivo; details: for Fasting blood glucose: 30 mg/kg daily intragastric
Experimental: (§3) A solution with a certain concentration was prepared from the crystal form B of the phosphate, and the administration volume was 10 mL/kg.
(§4) Experimental animals: C57BL16 mice aged for 5 weeks and weighed for about 13-16 g.
(§5) Grouping and administration scheme: the mice were fed adaptively and divided into a normal control group and a model group which were fed with high-fat feed (Research diets, D 12492). When the fasting blood glucose of the mice was greater than or equal to 7 mM, it was considered that the mice had become DIO mice. The DIO mice could be selected for the hypoglycemic effect test. The DIO mice were stratified and randomly grouped according to the blood glucose and the weight. […] The weight and the fasting blood glucose were measured weekly; the food amount, the remaining food amount and the food intake were recorded; the mice were fasted overnight at the end of administration, the blood was sampled, and the free fatty acid (NEFA), total cholesterol (TCHO), triglyceride (TG), insulin and DPPIV activity were measured by using serum.

DIO mice [5] = test: Long-term administration on DIO mice: serum metabolic parameters (NEFA, TCHO, TG, insulin); format: in vivo, C57BL16 mice; details: 30 mg/kg, end of long-term administration
Excerpt: Experimental animals: […] Table 18 was a total data table of the metabolic parameters.

[6] = Long-term administration on DIO mice: weight, food intake, tolerance
Experimental: as §3, §4, §5

[7] = XRPD of phosphate crystal form A after heating; format: physicochemical; details: heated for 48 h at 50° C.
Excerpt: After detection, the obtained solid was the crystal form A of phosphate, its XRPD data was shown in Table 9 below, its XRPD pattern was shown in FIG. 4, and its TGA chart and DSC chart were shown in FIG. 5. […] (peak temperatures) before decomposition.

C[C@@H]1c2cnc(C(F)(F)F)n2CCN1C(=O)C[C@H](N)Cc1cc(F)c(F)cc1F [Example 1, (8R)-7-[(3R)-3-amino-1-oxo-4-(2,4,5-trifluorophenyl)butyl]-5,6,7,8-tetrahydro-8-methyl-3-(trifluoromethyl)imidazo[1,5-a]pyrazine]
solubility ([1]; 1,4-Dioxane, organic solvent or mixture): 2.7 to 2.9 mg/mL (≈ 6.42 to 6.9 mM) | solubility ([1]; 2-MeTHF, organic solvent or mixture): 38.3 to 57.5 mg/mL (≈ 91.1 to 137 mM) | solubility ([1]; ACN, organic solvent or mixture): 57.5 to 115 mg/mL (≈ 137 to 274 mM) | solubility ([1]; Acetic acid, organic solvent or mixture): < 54 mg/mL | solubility ([1]; Acetone, organic solvent or mixture): 47.5 to 95 mg/mL (≈ 113 to 226 mM) | solubility ([1]; CHCl3, organic solvent or mixture): < 1.3 mg/mL | solubility ([1]; DCM, organic solvent or mixture): < 1.1 mg/mL | solubility ([1]; DMF, organic solvent or mixture): < 42 mg/mL | solubility ([1]; DMSO, organic solvent or mixture): 46 to 115 mg/mL (≈ 109 to 274 mM) | solubility ([1]; EtOAc, organic solvent or mixture): < 1.1 mg/mL | solubility ([1]; EtOH, organic solvent or mixture): 57.5 to 115 mg/mL (≈ 137 to 274 mM) | solubility ([1]; Heptane, organic solvent or mixture): < 1.3 mg/mL | solubility ([1]; Hexane, organic solvent or mixture): < 1.2 mg/mL | solubility ([1]; IPA, organic solvent or mixture): 38.3 to 57.5 mg/mL (≈ 91.1 to 137 mM) | solubility ([1]; IPAc, organic solvent or mixture): < 1.1 mg/mL | solubility ([1]; MEK, organic solvent or mixture): 72.5 to 145 mg/mL (≈ 172 to 345 mM) | solubility ([1]; MIBK, organic solvent or mixture): < 1 mg/mL | solubility ([1]; MTBE, organic solvent or mixture): < 0.9 mg/mL | solubility ([1]; MeOH, organic solvent or mixture): 67.5 to 135 mg/mL (≈ 161 to 321 mM) | solubility ([1]; NMP, organic solvent or mixture): 20 to 40 mg/mL (≈ 47.6 to 95.2 mM) | solubility ([1]; THF, organic solvent or mixture): 46 to 115 mg/mL (≈ 109 to 274 mM) | solubility ([1]; Toluene, organic solvent or mixture): < 1 mg/mL | solubility ([1]; cyclohexanol, organic solvent or mixture): < 1 mg/mL | solubility ([1]; isoamyl alcohol, organic solvent or mixture): 10 to 13.3 mg/mL (≈ 23.8 to 31.6 mM) | solubility ([1]; isobutyl alcohol, organic solvent or mixture): 3.8 to 4.7 mg/mL (≈ 9.04 to 11.2 mM) | solubility ([1]; n-amyl alcohol, organic solvent or mixture): 6.8 to 8.5 mg/mL (≈ 16.2 to 20.2 mM) | solubility ([1]; n-butyl alcohol, organic solvent or mixture): 60 to 120 mg/mL (≈ 143 to 285 mM) | solubility ([1]; organic solvent or mixture, 1- Octanol): < 0.9 mg/mL | solubility ([1]; sec-butyl alcohol, organic solvent or mixture): < 1 mg/mL | solubility ([1]; water, H2O): 21 to 42 mg/mL (≈ 50 to 99.9 mM)

N[C@@H](CC(=O)N1CCn2c(nnc2C(F)(F)F)C1)Cc1cc(F)c(F)cc1F [Sitagliptin phosphate, reference compound]
concentration at 1 h ([2]; 1 hour): 184 ± 10.2 ng/mL | concentration at 1.33 h ([2]; 1.33 hours): 159 ± 46.6 ng/mL | concentration at 1.67 h ([2]; 1.67 hours): 152 ± 15.1 ng/mL | concentration at 2 h ([2]; 2 hours): 142 ± 19.6 ng/mL | concentration at 3 h ([2]; 3 hours): 97.9 ± 35.5 ng/mL | AUC ([2]; read-out: Drug exposure (AUCeff0-3 h)): 370 ng·h/mL | weight [3]: 24.0 (3×) and 26.0 (2×) and 25.1 (2×) and 25.0 and 24.6 (2×) and 24.4 and 24.3 and 22.9 and 22.2 and 26.5 | Fasting blood glucose (DIO mice [4]; D 1): 8.3 ± 1.1 mmol/L | Fasting blood glucose (DIO mice [4]; D 3): 6.8 ± 1.1 mmol/L | Fasting blood glucose (DIO mice [4]; D 7): 8.0 ± 1.2 mmol/L | Fasting blood glucose (DIO mice [4]; D 14): 8.5 ± 1.3 mmol/L | Fasting blood glucose (DIO mice [4]; D 21): 8.9 ± 0.9 mmol/L | Fasting blood glucose (DIO mice [4]; D 28): 8.6 ± 0.9 mmol/L | fasting blood glucose data after the drug was administrated for 28 days (DIO mice [4]; individual animals, 30 mg/kg): 8.9 and 8.3 and 8.4 and 7.8 and 9.1 and 8.2 and 9.8 and 7.9 (2×) and 8 and 10.8 | decrease of insulin compared with the model control group (DIO mice [5]): 58.3% | decrease of total cholesterol (TCHO) compared with the model control group (DIO mice [5]): 25.4% | Serum NEFA (DIO mice [5]; fasted overnight): 1.11 ± 0.13 mmol/L | Serum TCHO (DIO mice [5]; fasted overnight): 3.99 ± 0.798 mmol/L | Serum TG (DIO mice [5]; fasted overnight): 0.94 ± 0.15 mmol/L | Serum insulin (DIO mice [5]; fasted overnight): 2.2 ± 1.38 ng/mL | Food intake ([6]; 30 mg/kg): 2.2 ± 5.0 g/day | weight ([6]; 30 mg/kg daily, D1): 37.2 ± 4.4 g | weight ([6]; 30 mg/kg daily, D7): 35.3 ± 3.7 g | weight ([6]; 30 mg/kg daily, D14): 34.4 ± 4.9 g | weight ([6]; 30 mg/kg daily, D21): 37.2 ± 5.3 g | weight ([6]; 30 mg/kg daily, D28): 39.5 ± 5.0 g | weight ([6]; 30 mg/kg, total data table of metabolic parameters (end of experiment)): 39.5 ± 5.0 g | weight after the drug was administrated for 28 days ([6]; individual animals, 30 mg/kg): 39.9 (2×) and 31.0 and 34.8 and 41.6 and 32.2 and 40.5 and 40.8 and 45.6 and 47.1 and 41.0

C[C@@H]1c2cnc(C(F)(F)F)n2CCN1C(=O)C[C@H](N)Cc1cc(F)c(F)cc1F [phosphate crystal form A, (8R)-7-[(3R)-3-amino-1-oxo-4-(2,4,5-trifluorophenyl)butyl]-5,6,7,8-tetrahydro-8-methyl-3-(trifluoromethyl)imidazo[1,5-a]pyrazine]
crystal form after heating (XRPD) [7]: transformed into a phosphate crystal form B
